Test results published in paper PMC4368105, “Oleic Acid Metabolism via a Conserved Cytochrome P450 System-Mediated ω-Hydroxylation in the Bark Beetle-Associated Fungus Grosmannia clavigera” (PLoS ONE, 2015).

Assays:
[1] = molecular target: T1, GsCYP630B18 with GsCPR2 (RS2) (Leptographium clavigerum, UniProt F0XBA3); assay: reconstituted membranes, LC/MS of 18-hydroxyoleic acid product; format: biochemical; settings: NADPH, 50 μM oleic acid, pH 7.4, room temperature, 1 h; GsCPR2 as redox partner
T1 construct: gene CMQ_5365; with NADPH--cytochrome P450 reductase
T1 sequence (F0XBA3 1-522): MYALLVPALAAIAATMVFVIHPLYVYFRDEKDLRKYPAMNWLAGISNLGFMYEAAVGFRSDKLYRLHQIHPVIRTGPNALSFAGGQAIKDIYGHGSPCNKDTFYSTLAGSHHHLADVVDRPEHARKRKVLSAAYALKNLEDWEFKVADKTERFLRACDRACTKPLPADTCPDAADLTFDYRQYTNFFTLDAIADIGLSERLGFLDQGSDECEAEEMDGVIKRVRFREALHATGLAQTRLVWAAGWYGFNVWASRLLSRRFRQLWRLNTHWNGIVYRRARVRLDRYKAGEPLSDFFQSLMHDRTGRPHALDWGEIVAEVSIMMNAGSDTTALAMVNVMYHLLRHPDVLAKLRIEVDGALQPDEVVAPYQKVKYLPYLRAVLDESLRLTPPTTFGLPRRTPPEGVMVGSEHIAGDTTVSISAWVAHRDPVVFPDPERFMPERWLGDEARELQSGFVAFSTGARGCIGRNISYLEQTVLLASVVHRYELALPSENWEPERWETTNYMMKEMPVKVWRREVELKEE
T1 sequence (F0XBA4 1-695 partner): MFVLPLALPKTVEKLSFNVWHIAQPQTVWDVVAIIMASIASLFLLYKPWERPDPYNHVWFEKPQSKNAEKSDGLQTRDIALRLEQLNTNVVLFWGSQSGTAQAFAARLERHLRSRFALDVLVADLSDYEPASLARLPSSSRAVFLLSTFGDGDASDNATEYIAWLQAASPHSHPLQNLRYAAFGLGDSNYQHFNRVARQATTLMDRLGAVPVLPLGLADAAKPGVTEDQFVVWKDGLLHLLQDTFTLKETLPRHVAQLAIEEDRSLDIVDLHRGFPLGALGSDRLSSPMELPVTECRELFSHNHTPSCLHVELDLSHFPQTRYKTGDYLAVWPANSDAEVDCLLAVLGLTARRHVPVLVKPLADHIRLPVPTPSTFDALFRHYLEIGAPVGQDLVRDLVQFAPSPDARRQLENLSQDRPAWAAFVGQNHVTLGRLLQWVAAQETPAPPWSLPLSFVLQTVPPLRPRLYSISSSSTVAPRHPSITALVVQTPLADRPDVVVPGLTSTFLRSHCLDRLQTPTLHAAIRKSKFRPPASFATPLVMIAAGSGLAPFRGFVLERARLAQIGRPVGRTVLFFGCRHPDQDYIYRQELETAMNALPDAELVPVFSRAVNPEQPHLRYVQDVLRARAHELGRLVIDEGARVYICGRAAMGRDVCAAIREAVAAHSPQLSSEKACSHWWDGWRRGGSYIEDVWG

[2] = molecular target: T2, GsCYP630B18 with GsCPR1 (RS1) (Leptographium clavigerum, UniProt F0XBA3); assay: as above; format: biochemical; settings: NADPH, 50 μM oleic acid, pH 7.4, room temperature, 1 h; GsCPR1 as redox partner
T2 construct: gene CMQ_5365; with NADPH--cytochrome P450 reductase
T2 sequence (F0XBA3 1-522): T1 sequence (F0XBA3 1-522)
T2 sequence (F0XUV1 1-690 partner): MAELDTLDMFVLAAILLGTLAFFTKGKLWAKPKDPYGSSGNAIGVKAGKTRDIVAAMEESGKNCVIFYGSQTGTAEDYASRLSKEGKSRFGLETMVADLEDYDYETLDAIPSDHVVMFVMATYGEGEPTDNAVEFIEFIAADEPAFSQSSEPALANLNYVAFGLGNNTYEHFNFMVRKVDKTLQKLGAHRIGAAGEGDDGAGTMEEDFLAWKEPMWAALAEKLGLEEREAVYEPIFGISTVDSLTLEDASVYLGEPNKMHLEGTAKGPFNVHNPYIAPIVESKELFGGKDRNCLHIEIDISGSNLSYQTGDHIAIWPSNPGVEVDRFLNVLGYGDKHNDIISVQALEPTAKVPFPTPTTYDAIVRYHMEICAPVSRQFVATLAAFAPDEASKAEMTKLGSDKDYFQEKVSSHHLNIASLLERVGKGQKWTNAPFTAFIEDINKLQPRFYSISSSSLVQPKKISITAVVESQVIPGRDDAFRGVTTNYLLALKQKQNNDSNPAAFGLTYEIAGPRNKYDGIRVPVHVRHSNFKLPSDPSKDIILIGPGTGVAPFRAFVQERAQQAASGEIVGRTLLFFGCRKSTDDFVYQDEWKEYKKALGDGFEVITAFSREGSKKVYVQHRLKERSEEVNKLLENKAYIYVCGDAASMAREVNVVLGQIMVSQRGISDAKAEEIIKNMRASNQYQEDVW

## CCCCCCCC/C=C\CCCCCCCC(=O)O [oleic acid]
[1]
  reconstituted membranes, LC/MS of 18-hydroxyoleic acid product: CYP630B18 converted oleic acid, but none of the other tested compounds
[2]
  reconstituted membranes, LC/MS of 18-hydroxyoleic acid product: CYP630B18 converted oleic acid, but none of the other tested compounds
